Measured values taken from PubChem BioAssay AID1418 (Emory University Molecular Libraries Screening Center, 2008).
Active and inactive are the calls of the source. How the calls were made is not given here.

These molecules were tested against Induced myeloid leukemia cell differentiation protein Mcl-1 (Homo sapiens) (UniProt Q07820) (assay: blockers of Bid binding to Mcl-1 – biochemical, TR-FRET, dose response (AID 1418)). Settings: Mcl-1/Bid peptide binding, TR-FRET (europium/Dy647), 2 hr.
Chain of Induced myeloid leukemia cell differentiation protein Mcl-1 (Homo sapiens) (Q07820 whole entry, looked up): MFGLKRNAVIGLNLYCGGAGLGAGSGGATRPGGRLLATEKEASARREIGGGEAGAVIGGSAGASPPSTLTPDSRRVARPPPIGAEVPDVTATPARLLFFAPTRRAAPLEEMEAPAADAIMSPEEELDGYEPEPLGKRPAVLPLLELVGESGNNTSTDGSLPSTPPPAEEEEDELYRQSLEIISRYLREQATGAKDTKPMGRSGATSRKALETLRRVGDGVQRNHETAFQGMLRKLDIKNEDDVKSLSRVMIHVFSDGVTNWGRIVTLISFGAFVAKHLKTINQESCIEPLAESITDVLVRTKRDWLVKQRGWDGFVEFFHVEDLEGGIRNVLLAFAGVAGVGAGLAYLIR

Compound	IC50
COC(=O)/C(=N/Nc1ccccc1)N1CCCc2ccccc21	> 54 µM (inactive)
COC(=O)C1=CN(CC2CCCO2)C=C(C(=O)OC)C1c1ccsc1 (configuration not stated)	> 54 µM (inactive)
COC(=O)c1cc(OC)c(OC)cc1NCC(=O)Nc1ccc(C)cc1	> 54 µM (inactive)
CCCCCCCCCCCCCCCC(O)C(N)CO (configuration not stated)	> 54 µM (inactive)
COc1ccc(NC(=O)CN2C(=O)/C(=C3\SC(=S)N(C4CCS(=O)(=O)C4)C3=O)c3ccccc32)cc1 (configuration not stated)	0.72 µM
COc1cc2c(cc1OC)-c1cc(NC3CCCCCCC3)nc(=O)n1CC2	> 54 µM (inactive)
Cc1ccc([N+](=O)[O-])cc1-c1ccc(/C=C(\C#N)c2[nH]nc(N)c2C#N)o1	3.74 µM
CC(Oc1ccc(Cl)cc1Cl)C(=O)N(C)c1ccccc1 (configuration not stated)	> 54 µM (inactive)
Cc1cccc(Cn2c(C)nc3c(N)c(C)c(C)cc32)c1	> 54 µM (inactive)
Cc1sc(NC(=O)c2ccccc2)c(C(=O)N2CCN(C)CC2)c1C	> 54 µM (inactive)
CCN(CC)C(=O)COC(=O)c1cc(-c2ccc(OC)cc2)nc2ccccc12	> 54 µM (inactive)
COc1ccc(C(=O)Nc2ccc3c(c2)C(=O)c2ccccc2C3=O)cc1OC	0.6 µM
COc1ccc(-n2cccc2/C=C2\C(=N)N3N=C(c4ccco4)SC3=NC2=O)cc1	3.22 µM
CCOc1cc(C=C2C(=O)c3ccccc3C2=O)ccc1OCC(=O)Nc1ccc(C)cc1	1.2 µM
S=C(NCc1ccc(Cl)cc1)NC1CCN(Cc2ccccc2)CC1	> 54 µM (inactive)
Cc1nc2c(c(=O)n1CCC1=CCCCC1)c1nc3ccccc3nc1n2/N=C/c1ccco1	> 54 µM (inactive)
Cc1cc(=O)oc2cc(OCc3ccc(C(=O)OCC(=O)Nc4ccc(N(C)C)cc4)cc3)ccc12	0.7 µM
O=C(NC(=S)Nc1ccc2c(c1)OCCO2)c1ccccc1F	> 54 µM (inactive)
Cc1ccc(CNc2nc(C)nc3sc4c(c23)CCC4)cc1	> 54 µM (inactive)
CC(=O)OCCn1c2nc(=O)[nH]c(=O)c-2nc2cc(C)c(C)cc21	18.8 µM
O=C(O)/C=C\C(=O)N1CCc2ccccc21	> 54 µM (inactive)
O=C1NC(=O)N(c2ccc(F)cc2)C(=O)/C1=C/c1ccc2c(c1)CCCN2Cc1ccccc1	0.79 µM
COC(=O)c1ccc(=O)c2nc3/c(=C/O)c(O)cc(=O)c3[nH]c12	3.23 µM
O=[N+]([O-])c1cc(Cl)cc(/C=N/NC(=S)Nc2cc(S(=O)(=O)N3CCOCC3)ccc2Cl)c1O	7.3 µM

Compound	IC50
O=C(CN1C(=O)/C(=C2\SC(=S)N(C3CCS(=O)(=O)C3)C2=O)c2ccccc21)Nc1ccccc1 (configuration not stated)	0.73 µM
Cc1c(C(=O)OCc2ccccc2)[nH]c2c1C(=O)CC(c1ccco1)C2 (configuration not stated)	> 54 µM (inactive)
Cc1ccsc1C(=O)OCC(=O)N1CCOCC1	> 54 µM (inactive)
COc1ccc(/C=N/NS(=O)(=O)c2ccccc2)cc1OC(=O)c1ccc(C)cc1	> 54 µM (inactive)
O=C(c1cccc(Cl)c1)N1CCN(Cc2ccccc2F)CC1	> 54 µM (inactive)
O=C(COc1cccnc1[N+](=O)[O-])c1ccc(Cl)s1	> 54 µM (inactive)
O=c1cc(-c2ccccc2Cl)oc2c(NS(=O)(=O)c3cc(Cl)cc(Cl)c3O)ccc(O)c12	7.73 µM
O=C(Nn1cnnc1)c1ccccc1CCc1ccccc1	> 54 µM (inactive)
O=C1CSC(=S)N1/N=C/c1ccc(O)c(O)c1O	1.17 µM
CCOC(=O)Nc1ccc2c(c1)N(C(=O)OCCN(C)C)c1ccccc1CC2	> 54 µM (inactive)
CCc1ccc(CCC(=O)Nc2ccc(C)cc2C)o1	> 54 µM (inactive)
CCc1cc(=O)oc2cc3occ(-c4ccc(OC)c(F)c4)c3cc12	> 54 µM (inactive)
CCOC(=O)c1ccc(NC(=O)Oc2ccccc2)cc1	> 54 µM (inactive)
CNc1ccc(Br)cc(C(=O)/C=C/c2cccc(Cl)c2Cl)c1=O	3.46 µM
CNC(=S)Nc1cc(C)ccc1OC(F)F	> 54 µM (inactive)
CCCCCCCCCCCCCCCC[n+]1cccc2ccccc21	6.64 µM
Cc1cc(NC2C3CC4CC(C3)CC2C4)n2nnnc2n1 (configuration not stated)	> 54 µM (inactive)
c1ccc2[nH]c(CN3CCOCC3)nc2c1	> 54 µM (inactive)
C=CCOc1c(OC)cc(/C=N/Nc2cccc(C(=O)O)c2)c(Br)c1Br	18.3 µM
Cn1nc(-c2ccc(Cl)cc2)c2cc(C(=O)NCCN3CCOCC3)sc21	> 54 µM (inactive)
NCCCC[C@H](NC(=O)C1CCNCC1)c1nnc(CN)o1	> 54 µM (inactive)
Cc1ccccc1C(=O)Nc1ccc2c(C#N)c3nc4ccccc4nc3n2c1	1.05 µM
O=C(CSc1cccc[n+]1[O-])Nc1cc2c(cc1Cl)C(=O)c1ccccc1C2=O	9.39 µM
COc1ccc(CCNC(=O)c2ccc(CNS(=O)(=O)c3ccc(C(C)(C)C)cc3)cc2)cc1OC	> 54 µM (inactive)

Compound	IC50
CC(C)(C)CC(C)(C)NC(=S)NC1CCN(Cc2ccccc2)CC1	> 54 µM (inactive)
CC1=C(C#N)C(=O)NC(=O)/C1=C\c1ccc(-c2cc(C)c(C)cc2[N+](=O)[O-])o1	1.16 µM
Cc1ccc(C(C)C)cc1NC(=O)Nc1ccc([N+](=O)[O-])cc1	> 54 µM (inactive)
CC(=O)N1CCc2cc(S(=O)(=O)NC(Cc3ccccc3)C(=O)NC3CCCCCC3)ccc21 (configuration not stated)	> 54 µM (inactive)
O=C(O)c1ccccc1-c1ccc(/C=c2\sc3nc4cc(Br)cnc4n3c2=O)o1	18.5 µM
COc1cc(NS(=O)(=O)c2ccc(NC(=S)NC(=O)c3sc4ccccc4c3Cl)cc2)nc(OC)n1	> 54 µM (inactive)
CC12CCC(C(=O)Nc3ccccc3-n3cccc3)(CC1=O)C2(C)C (configuration not stated)	> 54 µM (inactive)
Cc1nn(Cc2ccccc2)c(C)c1NC(=O)CSc1nc(-c2ccccc2)nc2c1cnn2-c1ccccc1	0.47 µM
C#CCOCCOCCOCCNc1nc(N2CCN(C(=O)[C@H](CCCCN)n3cc(C(N)[C@H](C)CC)nn3)CC2)nc(N2CCN(C(=O)[C@H](CCC(=O)O)n3cc(C(N)[C@H](C)CC)nn3)CC2)n1 (some centres not stated)	1.93 µM
COc1cccc2c1c(NC(=O)Nc1ccc(F)cc1F)nn2C	> 54 µM (inactive)
Cc1ccc(OCC(=O)NCc2ccco2)c([N+](=O)[O-])n1	> 54 µM (inactive)
COC(=O)C(Cc1csc2ccc(Cl)cc12)NC(=O)c1ccc(Cl)cc1 (configuration not stated)	> 54 µM (inactive)
Clc1cccc(Cl)c1CON/C=N/c1ncnc2sccc12	> 54 µM (inactive)
Oc1c(Cl)cc(Cl)c(Cl)c1Cc1c(O)c(Cl)cc(Cl)c1Cl	0.86 µM
Cc1ccc2cccc(Oc3ncnc4scc(-c5ccc(Cl)cc5)c34)c2n1	> 54 µM (inactive)
Nc1ccccc1Nc1ccccc1	> 54 µM (inactive)
FC(F)(F)c1ccncc1-c1nnnn1-c1ccc(Cl)cc1	> 54 µM (inactive)
COc1ccc2nc(C)cc(SCC(=O)Nc3c(C)cccc3C)c2c1	10.5 µM
O=C(c1ccccc1)N1CCN(C2CCCCCC2)CC1	> 54 µM (inactive)
O=C1CN(C(=O)CNCc2ccccc2)c2ccccc2N1	> 54 µM (inactive)
O=C(O)Cn1cnc2c(=S)nc[nH]c21	> 54 µM (inactive)
CC(C)NC(=O)C1CCCN(S(=O)(=O)c2ccc(-n3cnnn3)cc2)C1 (configuration not stated)	> 54 µM (inactive)
COc1cc(NC(=O)COc2ccccc2)c(OC)cc1NC(C)=O	> 54 µM (inactive)
CCOc1cc(C(=S)N2CCOCC2)ccc1O	> 54 µM (inactive)
